Source: the supplement of paper PMC10307832

Legend:
Test in all cases: relative viability (nuclei count vs DMSO), 5 days (fraction); higher = more cells survive
201T = system: 201T
Summary of the method: (§1)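 Relative viability equals treated-well nuclei counts divided by vehicle-well nuclei counts. Counts came from 4× images of lung cancer cell lines grown in 1536-well plates for 5 days after pin-tool dosing on the day after seeding. Dosing used one drug alone or a fixed anchor-drug dose plus five library-drug doses (not always all listed) in √10 steps, and values are medians of duplicate plates.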

ABC-1 = system: ABC-1
Summary of the method: as §1

ChaGo-K-1 = system: ChaGo-K-1
Summary of the method: as §1

EKVX = system: EKVX
Summary of the method: as §1

EMC-BAC-2 = system: EMC-BAC-2
Summary of the method: as §1

HCC-44 = system: HCC-44
Summary of the method: as §1

HCC-78 = system: HCC-78
Summary of the method: as §1

HOP-62 = system: HOP-62
Summary of the method: as §1

LC-2-ad = system: LC-2-ad
Summary of the method: as §1

LK-2 = system: LK-2
Summary of the method: as §1

NCI-H1355 = system: NCI-H1355
Summary of the method: as §1

NCI-H2009 = system: NCI-H2009
Summary of the method: as §1

NCI-H2228 = system: NCI-H2228
Summary of the method: as §1

NCI-H2347 = system: NCI-H2347
Summary of the method: as §1

NCI-H3122 = system: NCI-H3122
Summary of the method: as §1

NCI-H838 = system: NCI-H838
Summary of the method: as §1

PC-14 = system: PC-14
Summary of the method: as §1

RERF-LC-KJ = system: RERF-LC-KJ
Summary of the method: as §1

SK-MES-1 = system: SK-MES-1
Summary of the method: as §1

SW 1573 = system: SW 1573
Summary of the method: as §1

SW 900 = system: SW 900
Summary of the method: as §1

UMC-11 = system: UMC-11
Summary of the method: as §1

Question: With `COCC1(CO)C(=O)C2CCN1CC2` (stereo not drawn) [PRIMA-1MET] + O=C(CCCCCCC(=O)Nc1ccccc1)NO [Vorinostat] (partner 1 µM) as the compound, how does the relative viability (201T; first compound 0.2 µM) read?
Answer: 1.15

Question: What about the relative viability (201T; first compound 0.6325 µM) of the same compound?
Answer: 0.676

Question: And the relative viability (201T; first compound 2 µM)?
Answer: 0.797

Question: And the relative viability (201T; first compound 6.325 µM)?
Answer: 0.991

Question: And the relative viability (201T; first compound 20 µM)?
Answer: 0.98

Question: What about the relative viability (ABC-1; first compound 0.2 µM) of the same compound?
Answer: 1.01

Question: What about the relative viability (ABC-1; first compound 2 µM) of the same compound?
Answer: 1.09

Question: What about the relative viability (ABC-1; first compound 6.325 µM) of the same compound?
Answer: 1.11

Question: What about the relative viability (ABC-1; first compound 20 µM) of the same compound?
Answer: 0.262

Question: What about the relative viability (ChaGo-K-1; first compound 0.2 µM) of the same compound?
Answer: 0.858

Question: What about the relative viability (ChaGo-K-1; first compound 0.6325 µM) of the same compound?
Answer: 0.431

Question: What about the relative viability (ChaGo-K-1; first compound 2 µM) of the same compound?
Answer: 0.627

Question: What about the relative viability (ChaGo-K-1; first compound 6.325 µM) of the same compound?
Answer: 0.743

Question: And the relative viability (ChaGo-K-1; first compound 20 µM)?
Answer: 0.709

Question: And the relative viability (EKVX; first compound 0.2 µM)?
Answer: 0.995

Question: What about the relative viability (EKVX; first compound 0.6325 µM) of the same compound?
Answer: 0.548

Question: What about the relative viability (EKVX; first compound 2 µM) of the same compound?
Answer: 0.672

Question: And the relative viability (EKVX; first compound 6.325 µM)?
Answer: 0.849

Question: And the relative viability (EKVX; first compound 20 µM)?
Answer: 0.64

Question: And the relative viability (EMC-BAC-2; first compound 0.2 µM)?
Answer: 0.582

Question: And the relative viability (EMC-BAC-2; first compound 0.6325 µM)?
Answer: 0.36

Question: And the relative viability (EMC-BAC-2; first compound 2 µM)?
Answer: 0.335

Question: What about the relative viability (EMC-BAC-2; first compound 6.325 µM) of the same compound?
Answer: 0.527

Question: And the relative viability (EMC-BAC-2; first compound 20 µM)?
Answer: 0.271

Question: And the relative viability (HCC-44; first compound 0.2 µM)?
Answer: 1.08

Question: And the relative viability (HCC-44; first compound 0.6325 µM)?
Answer: 1.03

Question: What about the relative viability (HCC-44; first compound 2 µM) of the same compound?
Answer: 1.18

Question: And the relative viability (HCC-44; first compound 6.325 µM)?
Answer: 1.18

Question: What about the relative viability (HCC-44; first compound 20 µM) of the same compound?
Answer: 1.06

Question: What about the relative viability (HCC-78; first compound 0.2 µM) of the same compound?
Answer: 0.624

Question: And the relative viability (HCC-78; first compound 0.6325 µM)?
Answer: 0.407

Question: And the relative viability (HCC-78; first compound 2 µM)?
Answer: 0.392

Question: What about the relative viability (HCC-78; first compound 6.325 µM) of the same compound?
Answer: 0.403

Question: And the relative viability (HCC-78; first compound 20 µM)?
Answer: 0.102

Question: What about the relative viability (HOP-62; first compound 0.2 µM) of the same compound?
Answer: 0.59

Question: What about the relative viability (HOP-62; first compound 0.6325 µM) of the same compound?
Answer: 0.445

Question: What about the relative viability (HOP-62; first compound 2 µM) of the same compound?
Answer: 0.488

Question: And the relative viability (HOP-62; first compound 6.325 µM)?
Answer: 0.623

Question: And the relative viability (HOP-62; first compound 20 µM)?
Answer: 0.245

Question: What about the relative viability (LC-2-ad; first compound 0.2 µM) of the same compound?
Answer: 0.798

Question: What about the relative viability (LC-2-ad; first compound 0.6325 µM) of the same compound?
Answer: 0.578

Question: And the relative viability (LC-2-ad; first compound 2 µM)?
Answer: 0.679

Question: What about the relative viability (LC-2-ad; first compound 6.325 µM) of the same compound?
Answer: 0.733

Question: And the relative viability (LC-2-ad; first compound 20 µM)?
Answer: 0.645

Question: And the relative viability (LK-2; first compound 0.2 µM)?
Answer: 0.181

Question: And the relative viability (LK-2; first compound 0.6325 µM)?
Answer: 0.255

Question: What about the relative viability (LK-2; first compound 2 µM) of the same compound?
Answer: 0.166

Question: And the relative viability (LK-2; first compound 6.325 µM)?
Answer: 0.325

Question: What about the relative viability (LK-2; first compound 20 µM) of the same compound?
Answer: 0.0975

Question: And the relative viability (NCI-H1355; first compound 0.2 µM)?
Answer: 0.648

Question: What about the relative viability (NCI-H1355; first compound 0.6325 µM) of the same compound?
Answer: 0.632

Question: And the relative viability (NCI-H1355; first compound 2 µM)?
Answer: 0.556

Question: And the relative viability (NCI-H1355; first compound 6.325 µM)?
Answer: 0.671

Question: What about the relative viability (NCI-H1355; first compound 20 µM) of the same compound?
Answer: 0.58

Question: And the relative viability (NCI-H2009; first compound 0.2 µM)?
Answer: 0.752

Question: And the relative viability (NCI-H2009; first compound 0.6325 µM)?
Answer: 0.801

Question: What about the relative viability (NCI-H2009; first compound 2 µM) of the same compound?
Answer: 0.668

Question: What about the relative viability (NCI-H2009; first compound 6.325 µM) of the same compound?
Answer: 0.5

Question: What about the relative viability (NCI-H2009; first compound 20 µM) of the same compound?
Answer: 0.381

Question: And the relative viability (NCI-H2228; first compound 0.2 µM)?
Answer: 0.792

Question: What about the relative viability (NCI-H2228; first compound 0.6325 µM) of the same compound?
Answer: 0.74

Question: What about the relative viability (NCI-H2228; first compound 2 µM) of the same compound?
Answer: 0.6

Question: And the relative viability (NCI-H2228; first compound 6.325 µM)?
Answer: 0.606

Question: What about the relative viability (NCI-H2228; first compound 20 µM) of the same compound?
Answer: 0.0625

Question: What about the relative viability (NCI-H2347; first compound 0.2 µM) of the same compound?
Answer: 0.574

Question: And the relative viability (NCI-H2347; first compound 0.6325 µM)?
Answer: 0.656

Question: And the relative viability (NCI-H2347; first compound 2 µM)?
Answer: 0.348

Question: And the relative viability (NCI-H2347; first compound 6.325 µM)?
Answer: 0.551

Question: And the relative viability (NCI-H2347; first compound 20 µM)?
Answer: 0.327

Question: And the relative viability (NCI-H3122; first compound 0.2 µM)?
Answer: 1.01

Question: What about the relative viability (NCI-H3122; first compound 0.6325 µM) of the same compound?
Answer: 0.861

Question: What about the relative viability (NCI-H3122; first compound 2 µM) of the same compound?
Answer: 0.686

Question: And the relative viability (NCI-H3122; first compound 6.325 µM)?
Answer: 1.07

Question: And the relative viability (NCI-H3122; first compound 20 µM)?
Answer: 0.861

Question: What about the relative viability (NCI-H838; first compound 0.2 µM) of the same compound?
Answer: 0.769

Question: And the relative viability (NCI-H838; first compound 0.6325 µM)?
Answer: 0.691

Question: And the relative viability (NCI-H838; first compound 2 µM)?
Answer: 0.694

Question: And the relative viability (NCI-H838; first compound 6.325 µM)?
Answer: 0.762

Question: What about the relative viability (NCI-H838; first compound 20 µM) of the same compound?
Answer: 0.546

Question: What about the relative viability (PC-14; first compound 0.2 µM) of the same compound?
Answer: 0.722

Question: And the relative viability (PC-14; first compound 0.6325 µM)?
Answer: 0.755

Question: And the relative viability (PC-14; first compound 2 µM)?
Answer: 0.728

Question: What about the relative viability (PC-14; first compound 6.325 µM) of the same compound?
Answer: 0.777

Question: And the relative viability (PC-14; first compound 20 µM)?
Answer: 0.019

Question: What about the relative viability (RERF-LC-KJ; first compound 0.2 µM) of the same compound?
Answer: 0.817

Question: And the relative viability (RERF-LC-KJ; first compound 0.6325 µM)?
Answer: 0.507

Question: What about the relative viability (RERF-LC-KJ; first compound 2 µM) of the same compound?
Answer: 0.589

Question: And the relative viability (RERF-LC-KJ; first compound 6.325 µM)?
Answer: 0.911

Question: And the relative viability (RERF-LC-KJ; first compound 20 µM)?
Answer: 0.659

Question: And the relative viability (SK-MES-1; first compound 0.2 µM)?
Answer: 1.26

Question: What about the relative viability (SK-MES-1; first compound 0.6325 µM) of the same compound?
Answer: 1.08

Question: What about the relative viability (SK-MES-1; first compound 2 µM) of the same compound?
Answer: 1.05

Question: What about the relative viability (SK-MES-1; first compound 6.325 µM) of the same compound?
Answer: 1.24

Question: What about the relative viability (SK-MES-1; first compound 20 µM) of the same compound?
Answer: 1.18

Question: And the relative viability (SW 1573; first compound 0.2 µM)?
Answer: 0.83

Question: What about the relative viability (SW 1573; first compound 0.6325 µM) of the same compound?
Answer: 0.553

Question: And the relative viability (SW 1573; first compound 2 µM)?
Answer: 0.429

Question: What about the relative viability (SW 1573; first compound 6.325 µM) of the same compound?
Answer: 0.0463

Question: And the relative viability (SW 1573; first compound 20 µM)?
Answer: 0.0325

Question: And the relative viability (SW 900; first compound 0.2 µM)?
Answer: 0.58

Question: And the relative viability (SW 900; first compound 0.6325 µM)?
Answer: 0.427

Question: What about the relative viability (SW 900; first compound 6.325 µM) of the same compound?
Answer: 0.504

Question: And the relative viability (SW 900; first compound 20 µM)?
Answer: 0.129

Question: And the relative viability (UMC-11; first compound 0.2 µM)?
Answer: 0.422

Question: And the relative viability (UMC-11; first compound 0.6325 µM)?
Answer: 0.358

Question: What about the relative viability (UMC-11; first compound 2 µM) of the same compound?
Answer: 0.385

Question: What about the relative viability (UMC-11; first compound 6.325 µM) of the same compound?
Answer: 0.477

Question: What about the relative viability (UMC-11; first compound 20 µM) of the same compound?
Answer: 0.479
